Data: patent US8592468B2, “Bacterial thioredoxin reductase inhibitors and methods for use thereof” (Thioredoxin Systems AB, priority 2006, dated 2013)
pKi: −log10 of the molar value. Values after ≈ are worked out from the molar mass of the structure shown. Where two headings read alike, the source gives them in different places.

Tests used:
[1] = test system: E. coli NHHJ; conditions: strains of Enterobacteriaceae like E. coli NHHJ; cited from earlier work
[2] = test system: wild type DHB4 E. coli; test: Bacterial inhibition by ebselen derivates, MIC; conditions: Escherichia coli, DHB4E.COLI, 4 h, read-out: MIC for wild type DHB4 E. coli
Procedure: E. coli DHB4 strains wt, gshA^−, gor^−, oxyR^− were cultured overnight in LB medium. […] OD 600 was detected and DMSO was used as the control. […] The data are the means of two experiments.

[3] = target: E. coli ribonucleotide reductase (Escherichia coli (strain K12), UniProt P00452+P69924); test: Inhibition of E. coli ribonucleotide reductase (data not shown); type: biochemical
Sequence of E. coli ribonucleotide reductase (P00452 whole entry, looked up): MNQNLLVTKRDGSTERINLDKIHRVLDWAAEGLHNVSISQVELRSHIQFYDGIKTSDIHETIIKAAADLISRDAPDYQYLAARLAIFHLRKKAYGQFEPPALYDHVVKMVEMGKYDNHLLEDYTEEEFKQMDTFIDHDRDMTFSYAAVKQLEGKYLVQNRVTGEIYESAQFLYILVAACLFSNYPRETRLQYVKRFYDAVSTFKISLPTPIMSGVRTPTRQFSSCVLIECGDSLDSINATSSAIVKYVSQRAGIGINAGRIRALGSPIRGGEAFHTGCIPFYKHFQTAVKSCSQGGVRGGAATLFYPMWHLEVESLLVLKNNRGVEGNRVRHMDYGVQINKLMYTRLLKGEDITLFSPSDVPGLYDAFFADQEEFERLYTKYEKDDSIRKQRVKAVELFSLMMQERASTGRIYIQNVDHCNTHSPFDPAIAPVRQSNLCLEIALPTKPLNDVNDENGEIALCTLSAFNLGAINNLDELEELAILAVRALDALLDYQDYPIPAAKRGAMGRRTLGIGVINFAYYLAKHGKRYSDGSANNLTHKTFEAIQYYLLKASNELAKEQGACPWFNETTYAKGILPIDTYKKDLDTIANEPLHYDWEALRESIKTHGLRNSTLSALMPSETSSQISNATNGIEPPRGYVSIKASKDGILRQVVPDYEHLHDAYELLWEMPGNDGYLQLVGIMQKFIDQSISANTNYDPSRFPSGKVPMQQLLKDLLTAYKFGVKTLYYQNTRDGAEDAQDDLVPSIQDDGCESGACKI
Sequence of E. coli ribonucleotide reductase (P69924 whole entry, looked up): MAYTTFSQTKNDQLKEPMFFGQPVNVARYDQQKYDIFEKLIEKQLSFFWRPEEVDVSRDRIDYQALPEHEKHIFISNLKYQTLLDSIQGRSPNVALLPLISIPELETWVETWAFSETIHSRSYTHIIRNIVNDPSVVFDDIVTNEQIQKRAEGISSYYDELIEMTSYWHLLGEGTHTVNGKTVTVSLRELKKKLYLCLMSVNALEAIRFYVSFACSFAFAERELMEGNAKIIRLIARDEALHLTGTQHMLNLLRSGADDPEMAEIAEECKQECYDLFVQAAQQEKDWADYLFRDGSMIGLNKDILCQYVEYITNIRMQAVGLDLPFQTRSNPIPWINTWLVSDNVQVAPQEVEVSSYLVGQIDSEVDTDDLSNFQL

[4] = test system: E. coli DHB4 strains; test: Sensitivity of growth of E. coli DHB4 strains to ebselen (A600); type: cell-based
Procedure: Bacterial cells were grown in 5 mL cultures at 37° C., 120 rpm in 15 mL closed tubes containing Lutria-Bertani (LB) or M9 minimal media supplemented with 50 μg/ml Leu, Ile, 1× basal medium Eagle's vitamin solution (Invitrogen) and 2 μg/mL nicotinic acid. For the experiments regarding sensitivity of growth to ebselen, cells were initially grown overnight at 37° C. at the respective medium. The next day, equal cell numbers (as determined by A600) with dilutions of at least 1:50 were used to start 5 mL cultures containing different concentrations of Ebselen. Ebselen stock solutions were freshly prepared in DMSO. Extra DMSO was added to the cultures so that the total volumes of DMSO were the same per culture even at different final concentrations of Ebselen. Growth inhibition assays were carried out also on M9 minimal plates. The plates were covered with minimal top agar that contained equal cell number for all the strains examined. These were derived from overnight liquid cultures in M9 medium.
Sensitivity to ebselen was measured by inhibition of growth as determined by scattering (absorbance) at 600 nm at different times after inoculation.

[5] = test system: Staphylococcus aureus; conditions: cited from earlier work
[6] = test system: Mycobacterium tuberculosis; test: Inhibition of Mycobacterium tuberculosis by ebselen, radiometric BACTEC 460 system; type: cell-based
[7] = target: T1, E. coli TrxR (Escherichia coli (strain K12), UniProt P0A9P4); type: biochemical
T1 sequence (P0A9P4 2-321 limits assumed): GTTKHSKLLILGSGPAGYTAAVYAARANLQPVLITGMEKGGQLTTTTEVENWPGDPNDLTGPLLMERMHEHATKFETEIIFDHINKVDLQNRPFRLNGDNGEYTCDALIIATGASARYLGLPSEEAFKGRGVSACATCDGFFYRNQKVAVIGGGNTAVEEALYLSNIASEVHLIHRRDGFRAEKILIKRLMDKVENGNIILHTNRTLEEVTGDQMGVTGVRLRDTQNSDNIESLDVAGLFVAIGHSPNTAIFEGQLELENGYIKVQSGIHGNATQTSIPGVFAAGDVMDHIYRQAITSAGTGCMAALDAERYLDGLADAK
Procedure: In FIG. 6A, 10 μM of ebselen (▴) and 10 μM of PZ25 (▪) were used as substrate of 25 nM calf thymus TrxR. In FIG. 6B, 10 μM of PZ25 was used as substrate for 10 nM calf thymus TrxR (◯) and 10 nM of E. coli TrxR (●). Reactions were started by adding enzymes in cuvettes containing 500 μl TE buffer with 100 μM NADPH, of which the consumption were followed by the changes of the absorption at 340 nm against identical blank without enzymes.
Reactions were started by adding enzymes to cuvettes containing 500 μl TE buffer with 100 μM NADPH and 16 μM compounds. The NADPH consumption was followed by the changes of the absorption at 340 nm against identical blank without enzymes.
(§1) The activity of the enzyme was determined at room temperature using an Ultrospec 3000 UV/Visual spectrophotometer (Amersham Biosciences). […] The enzyme-catalysed reactions were followed at 340 nm using the standard calculation of NADPH oxidation to NADP^+ with a molar extinction coefficient of 6200 M^−1 cm^−1 (32, 34). The conditions of the assay of bacterial thioredoxin reductase have been described (32, 34) using either 1 mM DTNB or 160 μM insulin as a substrate. In DTNB coupled assays, 240 μM NADPH and 1 mM DTNB were used in the TE buffer and formation of the TNB was measured at 412 nm, where TNB has an extinction coefficient of 13600 M^−1 cm^−1.
(§2) Further we examined the effect of ebselen in the reduction of disulphide by E. coli Trx and TrxR using both DTNB and insulin as substrates. […] FIGS. 4A and 4B show the effect of ebselen (4A) and ebselen diselenide (4B) on DTNB reduction by E. coli thioredoxin and thioredoxin reductase. Assays in semi-microcuvettes with 0.5 ml solution contained 0.24 mM NADPH, 1 mM DTNB in 50 mM Tris-Cl/1 mM EDTA, pH 7.5 buffer. (A) In the presence of 2 μM (grey filled points), 5 μM (white filled points) and 10 μM (black filled points) of E. coli Trx and 7.6 nM of E. coli TrxR with ebselen at concentrations of zero (squares), 0.5 μM (triangles), 1 μM (rhombus), and 2 μM (rounds), the increase in A412 was measured against a blank. (B) In the presence of 2 μM (grey filled points), 5 μM (white filled points) and 10 μM (black filled points) of E. coli Trx and 10 nM of E. coli TrxR, with ebselen diselenide at concentrations of zero (squares), 1 μM (triangles) and 2 μM (rounds), the increase in A412 was measured against a blank.

[8] = target: T1, E. coli TrxR; test: Inhibition of E. coli TrxR reduction of Trx, DTNB coupled assay (Lineweaver-Burk); type: biochemical
Procedure: FIGS. 4A and 4B show the effect of ebselen (FIG. 4A) and ebselen diselenide (FIG. 4B) on DTNB reduction by E. coli thioredoxin and thioredoxin reductase. Assays were contained in 0.50 ml semi-microcuvettes containing 0.24 mM NADPH, 1 mM DTNB in 0.10 M Tris-Cl, pH 8.0, 1 mM EDTA. The increase in A412 was measured against a blank using 10 nM E. coli TrxR in the presence of 2 μM (grey filled points), 5 μM (white filled points), 10 μM (black filled points) E. coli Trx with 0 (squares), 0.5 μM (triangles), 1 μM (rhombus), 2 μM (rounds) of ebselen or ebselen diselenide.
(A) Ebselen concentrations were 0 μM (▴), 0.5 μM (∀), 1 μM (▪) and 2 μM (Δ). […] (B) Ebselen concentrations were 0 μM (▴), 1 μM (▪) and 2 μM (∀).
as §1, §2

[9] = target: E. coli Trx-(SH)2 (Escherichia coli (strain K12), UniProt P0AA25); conditions: fluorescence spectroscopy; cited from earlier work

**Q.** With `O=c1c2ccccc2[se]n1-c1ccccc1` [EbSe 6, 2-phenyl-1,2-benzisoselenazol-3(2H)-one] as the molecule, how does the “concentration required to inhibit growth” value [1] read?
**A.** Its value is “up to 50 μg per ml”.

**Q.** And the MIC [2]?
**A.** Its MIC is 40 µM (≈ 11 µg/mL).

**Q.** And the “inhibition of E. coli ribonucleotide reductase” value [3]?
**A.** Its value is “effective direct inhibitor”.

**Q.** And the “wild type bacteria compared with gor^− and gshA^− strains” value [4]?
**A.** The value was “more resistant”.

**Q.** What about the “sensitivity of gshA^−trxA^− strain” value ([4]; LB medium) of the same molecule?
**A.** Its value is “more sensitive”.

**Q.** And the “sensitivity of strain trxA^−C^− compared with wild type” value ([4]; LB medium)?
**A.** Its value is “similar, if not less”.

**Q.** What about the “growth of gor^− and gshA^− strains in presence of ebselen” value ([4]; minimal media (M9)) of the same molecule?
**A.** Its value is “hardly grew”.

**Q.** What about the “mode of antibacterial action” value ([5]; S. aureus strains) of the same molecule?
**A.** Its value is “bacteriocidal”.

**Q.** And the concentration inhibiting growth ([5]; Staphylococcus aureus 209P)?
**A.** The concentration inhibiting growth was 0.20 µg/mL.

**Q.** What about the “MIC for 90% of S. aureus strains” value [5] of the same molecule?
**A.** Its value is 1.56 μg per ml.

**Q.** What about the “sensitivity of S. aureus relative to E. coli” value [5] of the same molecule?
**A.** Its value is 100 fold.

**Q.** What about the concentration inhibiting growth ([5]; methicillin resistant Staphylococcus aureus) of the same molecule?
**A.** Its concentration inhibiting growth is 0.20 μg per ml.

**Q.** And the MIC ([6]; Mycobacterium tuberculosis)?
**A.** The MIC was under 20 µg/mL.

**Q.** What about the Sensitivity to ebselen ([6]; strain BTB 98-310 (MDR), ebselen 10 μg/ml) of the same molecule?
**A.** The Sensitivity to ebselen was “R”.

**Q.** What about the Sensitivity to ebselen ([6]; strain BTB 98-310 (MDR), ebselen 20 μg/ml) of the same molecule?
**A.** The Sensitivity to ebselen was “S”.

**Q.** What about the Sensitivity to ebselen ([6]; strain BTB 98-310 (MDR), ebselen 40 μg/ml) of the same molecule?
**A.** Its Sensitivity to ebselen is “S”.

**Q.** And the Sensitivity to ebselen ([6]; strain BTB 98-310 (MDR), ebselen 80 μg/ml)?
**A.** The Sensitivity to ebselen was “S”.

**Q.** And the Sensitivity to ebselen ([6]; strain H37Rv, ebselen 10 μg/ml)?
**A.** Its Sensitivity to ebselen is “R”.

**Q.** What about the Sensitivity to ebselen ([6]; strain H37Rv, ebselen 20 μg/ml) of the same molecule?
**A.** Its Sensitivity to ebselen is “S”.

**Q.** And the Sensitivity to ebselen ([6]; strain H37Rv, ebselen 40 μg/ml)?
**A.** Its Sensitivity to ebselen is “S”.

**Q.** And the Sensitivity to ebselen ([6]; strain H37Rv, ebselen 80 μg/ml)?
**A.** Its Sensitivity to ebselen is “S”.

**Q.** What about the Sensitivity to ebselen ([6]; strain Panel3:24 (MDR), ebselen 10 μg/ml) of the same molecule?
**A.** The Sensitivity to ebselen was “R”.

**Q.** And the Sensitivity to ebselen ([6]; strain Panel3:24 (MDR), ebselen 20 μg/ml)?
**A.** The Sensitivity to ebselen was “S”.

**Q.** And the Sensitivity to ebselen ([6]; strain Panel3:24 (MDR), ebselen 40 μg/ml)?
**A.** Its Sensitivity to ebselen is “S”.

**Q.** What about the Sensitivity to ebselen ([6]; strain Panel3:24 (MDR), ebselen 80 μg/ml) of the same molecule?
**A.** The Sensitivity to ebselen was “S”.

**Q.** And the “oxidation of NADPH when directly added to E. coli TrxR and NADPH” value [7]?
**A.** The value was “no oxidations of NADPH”.

**Q.** What about the “inhibition of E. coli TrxR (in words)” value [8] of the same molecule?
**A.** The value was “strongly inhibited”.

**Q.** And the pKi ([8]; Ki (competitive inhibitor of Trx reduction by E. coli TrxR), from Lineweaver-Burk slopes)?
**A.** Its pKi is 6.82.

**Q.** And the “second-order rate constant of reaction with reduced E. coli Trx” value [9]?
**A.** Its value is 2e+07 M⁻¹ s⁻¹.
